Assay results as given in US6342487B1, “Compositions containing at least one farnesyl transferase inhibitor and at least one topoisomerase inhibitor and compositions containing at least one farnesyl transferase inhibitor and at least one taxoid” (Aventis Pharma Rorer S.A., priority 1998, dated 2002).

Assays:
human colon tumor HCT116 = assay: Activity on the colon tumor HCT116 grafted by the subcutaneous route onto female nu/nu Swiss mice; format: in vivo
Experimental: This efficacy can be quantified, for example, by the net log 10 of the killed cells which is determined according to the following formula:
net log 10 of the killed cells=[T-C (days)−duration of the treatment (days)]/[3.32·Td]
in which T-C represents the delay in tumor growth which is the median time, in days, which the tumors of the treated group (T) and the tumors of the control group (C) took to reach a predetermined value (1 g for example) and Td represents the time, in days, necessary for the doubling of the volume of the tumor in the control animals [T. H. CORBETT et al., Cancer, 40, 2660-2680 (1977); F. M. SCHABEL et al., Cancer Drug Development, Part B, Methods in Cancer Research, 17, 3-51, New York, Academic Press Inc. (1979)].
A product is considered as very active if net log 10 of the killed cells is greater than or equal to 2.8. […] In such a case, the net log 10 of the killed cells has a positive value.
The combination, used at its own maximum tolerated dose, in which each of the constituents will be present at a dose which is generally lower than or equal to its maximum tolerated dose, will show a therapeutic synergy when the net log 10 of the killed cells is higher than the value of the net log 10 of the killed cells of the better constituent when it is administered alone.
The efficacy of the combinations on solid tumors can be determined experimentally in the following manner:
The animals subjected to the experiment, generally mice, are grafted bilaterally by the subcutaneous route with 30 to 60 mg of a tumor fragment on day 0. In the case of treatment of advanced tumors, the tumors are allowed to develop to the desired size, the animals having insufficiently developed tumors being eliminated. The selected animals are divided as a function of their tumor weight in a homogeneous manner between the treated and control groups, before the start of the treatments. Chemotherapy generally commences 12 to 14 days after the implantation of the tumor and the animals are observed every day. The different groups of animals are weighed every day until the maximum loss of weight is reached and then the groups are weighed at least once per week until the end of the test. The tumors are measured 2 to 3 times per week, with the aid of a slide calliper, according to two measurements in mm which are then converted into tumor weight according to the following formula: […]
The tumors are measured two or three times per week until the tumor reaches approximately 2 g or until the death of the animal if this occurs before the tumor reaches 2 g. An autopsy is carried out on the animals at the time of sacrifice.
The antitumor activity is determined as a function of the different parameters recorded.

[1] = Toxicity of the combination of product A with irinotecan; format: in vivo; conditions: in combination with the topoisomerase inhibitor irinotecan
[2] = Table 1, tumor doubling time 3.4 days, 248 mg/kg per injection, days 14-25 (2x/d.)
[3] = Table 1, tumor doubling time 3.4 days, 400 mg/kg per injection, days 14-25 (2x/d.)
[4] = Table 1, tumor doubling time 3.4 days, 645 mg/kg per injection, days 14-25 (2x/d.)
[5] = Table 2, tumor doubling time 4.5 days, 645 mg/kg per injection, days 14-25 (2x/d.)
[6] = Table 1, tumor doubling time 3.4 days, doses 25 and 248 mg/kg per injection, days 14, 18, 22 (2x/d.) and 25-36 (2x/d.)
[7] = Table 1, tumor doubling time 3.4 days, doses 25 and 400 mg/kg per injection, days 14, 18, 22 (2x/d.) and 25-36 (2x/d.)
[8] = Table 1, tumor doubling time 3.4 days, doses 25 and 645 mg/kg per injection, days 14, 18, 22 (2x/d.) and 25-36 (2x/d.)
[9] = Table 1, tumor doubling time 3.4 days, doses 41 and 248 mg/kg per injection, days 14, 18, 22 (2x/d.) and 25-36 (2x/d.)
[10] = Table 1, tumor doubling time 3.4 days, doses 41 and 400 mg/kg per injection, days 14, 18, 22 (2x/d.) and 25-36 (2x/d.)
[11] = Table 1, tumor doubling time 3.4 days, doses 41 and 645 mg/kg per injection, days 14, 18, 22 (2x/d.) and 25-36 (2x/d.)
[12] = Table 2, tumor doubling time 4.5 days, 11.2 mg/kg per injection, days 14, 18, 22 (2x/d.)
[13] = Table 2, tumor doubling time 4.5 days, 18.7 mg/kg per injection, days 14, 18, 22 (2x/d.)
[14] = Table 2, tumor doubling time 4.5 days, 31.2 mg/kg per injection, days 14, 18, 22 (2x/d.)
[15] = Table 2, tumor doubling time 4.5 days, 52.0 mg/kg per injection, days 14, 18, 22 (2x/d.)

## C=C(C(=O)N1C[C@@H]2[C@]3(c4ccc(C)cc4)CC[C@@H](c4ccccc43)[C@]2(C(=O)O)C1)c1ccccc1OC (racemic) [A, (3aRS,4SR,9SR,9aRS)-4,9-ethano-2-[2-(2-methoxyphenyl)propenoyl]-9-(4-methylphenyl)-2,3,3a,4,9,9a-hexahydro-1H-benzo[f]isoindole-3a-carboxylic acid]
Human colon tumor HCT116; [2]
  (T-C)-(Duration of treatment): -10.9 days
  Long-term survivors on day 154: 0/6
  net log10 of killed cells: −1.0
Human colon tumor HCT116; [3]
  (T-C)-(Duration of treatment): -4.2 days
  Long-term survivors on day 154: 0/6
  net log10 of killed cells: −0.4
Human colon tumor HCT116; [4]
  (T-C)-(Duration of treatment): -2.7 days
  Long-term survivors on day 154: 0/6
  net log10 of killed cells: −0.2
Human colon tumor HCT116; [5]
  (T-C)-(Duration of treatment): 6.9 days
  Long-term survivors on day 154: 0/5
  net log10 of killed cells: 0.5
[1]
  toxicity in combination with irinotecan: does not increase the toxicity of irinotecan

## CCc1c2c(nc3ccc(OC(=O)N4CCC(N5CCCCC5)CC4)cc13)-c1cc3c(c(=O)n1C2)COC(=O)[C@]3(O)CC [Irinotecan, irinotecan]
Human colon tumor HCT116; [6]
  (T-C)-(Duration of treatment): 19.1 days
  Long-term survivors on day 154: 1/6
  net log10 of killed cells: 1.7
Human colon tumor HCT116; [7]
  Long-term survivors on day 154: 2/7
  net log10 of killed cells: 3.3
Human colon tumor HCT116; [8]
  Long-term survivors on day 154: 3/8
  net log10 of killed cells: 3.6
Human colon tumor HCT116; [9]
  Long-term survivors on day 154: 4/8
  net log10 of killed cells: 3.3
Human colon tumor HCT116; [10]
  (T-C)-(Duration of treatment): 55.9 days
  Long-term survivors on day 154: 4/7
  net log10 of killed cells: 5.0
Human colon tumor HCT116; [11]
  Long-term survivors on day 154: 4/8
  net log10 of killed cells: 3.4
Human colon tumor HCT116; [12]
  (T-C)-(Duration of treatment): 8.3 days
  net log10 of killed cells: 0.6
Human colon tumor HCT116; [13]
  Long-term survivors on day 154: 0/5
  net log10 of killed cells: 1.1
Human colon tumor HCT116; [14]
  Long-term survivors on day 154: 0/5
  net log10 of killed cells: 1.0
Human colon tumor HCT116; [15]
  (T-C)-(Duration of treatment): 19.5 days
  Long-term survivors on day 154: 0/5
  net log10 of killed cells: 1.3
Human colon tumor HCT116; mouse, in vivo, 86 mg/kg
  (T-C)-(Duration of treatment): toxic
